# Activity calls are given as the source filed them. No rule for the calls is given here.
# System: Jurkat NF-kB reporter, TCR-induced, luciferase luminescence
# Experiment: inhibitors of TCR-driven NF-kB activation, dose response, Jurkat cells, luminescence (AID 489035)
row,SMILES,IC50
1,Cc1ccc(-c2cc(C(F)F)n3ncc(C(=O)N4CCc5ccccc54)c3n2)cc1,> 80 µM (inactive)
2,COc1ccc(N(C(=O)c2ccccc2C)S(=O)(=O)c2cccs2)cc1,20 µM (inactive)
3,C=C(C)C(=O)O[C@H]1C/C(C)=C\C(=O)/C=C(\C)[C@H](O)[C@@H]2OC(=O)C(=C)[C@@H]21,2.06 µM
4,Cc1cc(C)c2nc(C)cc(N/N=C/c3ccc(O)cc3)c2c1,2.9 µM
5,COc1ccc(C(=O)NNC(=O)c2ccccn2)cc1,1.93 µM
6,COC(=O)Nc1ccc(S(=O)(=O)N2CCCc3ccccc32)cc1,> 80 µM (inactive)
7,CCOc1ccccc1NS(=O)(=O)c1ccc(-c2cnc(C3CC3)o2)cc1,6.3 µM
8,Cc1ccc(N2C(=O)c3cccc4c(N)ccc(c34)C2=O)c2cccnc12,< 0.16 µM
9,CC(=O)Nc1ccc(S(=O)(=O)N2CCSc3ccccc32)cc1,> 80 µM (inactive)
10,Cc1ccc(-c2nc(-c3ccccn3)no2)cc1,2.34 µM
11,COc1cccc(N2CCN(C(=O)c3ccc(CS(=O)c4ccccc4C)o3)CC2)c1 (stereo unspecified),16.7 µM
12,O=C(Nc1nc(-c2ccccn2)cs1)c1ccc(Cl)s1,2.64 µM
13,CCS(=O)(=O)c1ncc(Cl)c(C(=O)Nc2ccc(S(=O)(=O)N(C)c3ccccc3)cc2)n1,0.8 µM
14,COc1cc(C(=O)Nc2ccc3c(c2)ncn3C)cc(OC)c1OC,> 80 µM (inactive)
15,Cc1ccc(NC(=O)CSc2nc(-c3ccco3)cc(C(F)(F)F)n2)cc1C,> 80 µM (inactive)
16,Cc1ccc(O)c(NC(=O)c2cc(-c3ccccc3)on2)c1,> 80 µM (inactive)
17,COc1cc(-c2noc(C)c2-c2ccc(N(C)C)nc2)cc(OC)c1OC,> 80 µM (inactive)
18,COc1ccc(NS(=O)(=O)c2ccc(-c3cnc(C4CC4)o3)cc2)cc1OC,> 80 µM (inactive)
19,COC(=O)c1[nH]c2ccc(Br)cc2c1NC(=O)CN1CCN(C2CCCCC2)CC1,4.56 µM
20,Clc1cccc(Cl)c1/C=N/Nc1c(Cl)cncc1Cl,> 80 µM (inactive)
21,CCOc1cc(C(=O)N/N=C/C(Br)=C/c2ccccc2)cc(OCC)c1OCC,> 80 µM (inactive)

row,SMILES,IC50
1,Cc1cc(-c2ccc(S(=O)(=O)N(C)c3ccc(C)c(C)c3)s2)on1,> 80 µM (inactive)
2,CCCCC(=O)NC(c1ccc(N(CC)CC)cc1)c1ccc2cccnc2c1O (stereo unspecified),8.89 µM
3,CCOc1ccc(S(=O)(=O)NCc2ccccn2)cc1NC(=O)c1ccccc1F,> 80 µM (inactive)
4,COc1ccccc1N1CCN(C(=O)c2cc(=O)c3cc(C)cc(C)c3o2)CC1,2.79 µM
5,CCOc1ccccc1C1CC(=O)Nc2cc3c(cc21)OCO3 (stereo unspecified),67.1 µM (inactive)
6,CCOC(=O)Nc1nc(-c2ccccc2)c(C(=O)c2ccccc2)s1,> 80 µM (inactive)
7,C[C@]12CCC3C(CCC4=CC(O)CC[C@@]43/C=N/O)C1(O)CCC2C1=CC(=O)OC1 (stereo partly specified),47.8 µM (inactive)
8,COC(=O)C(Cc1ccc(N(CCCl)CCCl)cc1)N=Cc1ccccc1O (stereo unspecified),0.65 µM
9,CCC(=O)NC(c1ccc(C)cc1)c1ccc2cccnc2c1O (stereo unspecified),11.6 µM
10,COc1ccc(CNC(=O)c2c(C)oc3c2C(=O)c2ccccc2C3=O)cc1,8.08 µM
11,CCn1ncc(C2=NOC(C(=O)NCc3ccccc3)C2)c1C (stereo unspecified),< 0.16 µM
12,COc1ccc(CNS(=O)(=O)c2cc(-c3cc(C)no3)ccc2C(C)C)cc1,64.6 µM (inactive)
13,COc1ccc(Nc2nc(-c3sc(C)nc3C)cs2)cc1,38.8 µM (inactive)
14,O=c1cc(-c2ccccc2)[nH]c2ccccc12,> 80 µM (inactive)
15,Cc1nn(C)c(C)c1CN(Cc1nc(CCC(C)C)no1)C(C)C,> 80 µM (inactive)
16,COC(=O)c1ccc(Oc2cc(C)nc(SC)n2)cc1,> 80 µM (inactive)
17,CC(Oc1ccc(Cl)cc1Cl)c1nc(-c2ccc(NC(=O)c3ccncc3)cc2)no1 (stereo unspecified),> 80 µM (inactive)
18,COc1ccc(-n2nnnc2-c2cccc(OC)c2)cc1,> 80 µM (inactive)
19,Cc1nn(-c2ccccc2Cl)c(Cl)c1/C=N/Nc1nc2ccccc2s1,< 0.16 µM
20,Cn1c2c(c(=O)n(C)c1=O)C(C(F)(F)F)(C(F)(F)F)N=C(c1ccc(Cl)cc1)N2,> 80 µM (inactive)

# — PubChem BioAssay AID489035 (Sanford-Burnham Center for Chemical Genomics, 2010)
